For assay [1], the system named is NIH-3T3. Description: In vitro growth inhibition (GI50), SRB assay, normal fibroblast. The following applies: NIH-3T3 normal murine fibroblast cell line, 3 days. The assay is classed as cell-based, mouse. The text has this:
The following cell lines were selected from the cell bank for screening and GI50 studies: MCF-7: human breast tumor, MCF-7/ADR: MCF-7 adriamycin resistant subline, HT-29: human colon carcinoma, A-549: human non-small cell lung cancer, NIH-3T3: mouse Swiss embryo fibroblast and WI-38: human lung fibroblast, SKMEL-28: human melanoma, Lewis Lung: mouse lung carcinoma, DU-145: prostate carcinoma, B16F10: mouse melanoma, L1210: murine lymphocytic leukemia, P-388: murine leukemia, U-937: human histolytic lymphoma. Except HT-29, WI-38, NIH-3T3 and Lewis Lung which were obtained from the American Type Culture Collection (Rockville, Md.) all the other cell lines were obtained from National Cancer Institute—Frederick Research Facility (Frederick, Md.). All the cell lines were grown in RPMI-1640 medium containing 10% fetal bovine serum (FBS) except WI-38 and DU-145 which were grown in EMEM+10% FBS at 37° C., 5% CO2 and 100% humidity and NIH-3T3, Lewis Lung, B16F10 and L1210 which were grown in DMEM containing 10% FBS (10% HS for L1210). […]
The test compounds were made in-house and the compounds were dissolved PBS or saline at a stock concentration of approximately 20 mM, which is 400 times the desired final maximum test concentration. […] After 3 days of incubation, cell growth was determined.
The SRB assay was performed as described by Monks, A., Scudiero, D., Skehan, P., Shoemaker, R., Paull, K., Vistica, D., Hose, C., Langley, J., Cronise, P., and Vaigro-Wolff, A. Feasibility of a high-flux anticancer drug screen using a diverse panel of cultured human tumo-r cell lines. […] Bound SRB was solubilized with Tris buffer (10 mM), and the ODs were read using an automated plate reader (Bio-Rad, Model 3550-UV) at 490 nm. Background values were subtracted from the test data, and the data was calculated as a % of control. […] Percentage growth was calculated as described by, Peters, A. C., Ahmad, I., Janoff, A. S., Pushkareva, M. Y., and Mayhew, E. Growth Inhibitory effects of liposome-associated 1-o-octadecyl-2-o-methyl-sn-glycero-3-phosphocholine. […]

In assay [2] the test system is HCC-2998. Description: NCI growth inhibition screen, colon panel. The assay is classed as cell-based, human. Details: key: = means equivalent activity; + means that it appears to be significantly better (i.e., by ˜2x); < means it appears to be less active than ET18OCH3 (˜2x); a combination like =/+ or </+ means that activity is dependent upon the isomer; a combination like =/+ or </+ means that activity is dependent upon the isomer. The following applies: HCC-2998, Colon; from GI50s. The procedure:
(§1) Candidates deemed suitable for in vivo testing were then synthesized in large scale quantities and some of this material was sent to the NCI's Developmental Therapeutics Program for a battery of growth inhibitory studies against various human tumor cell lines (60 cell lines, 9 different panels). The remainder of the material was used to assess in vivo efficacy using murine tumor models. Additionally, studies were conducted on the lead candidates to discern mechanism of action with particular emphasis on these agents apoptotic ability as measured by caspase 3 activity. The details (materials and methods) for these various assays are described further in the following discussion.
(§2) Ten compounds were also sent to NCI's Drug Discovery Program for screening against numerous human tumor cell lines (9 panels total: renal ovarian, colon, CNS, non-small cell lung, leukemia, breast, melanoma, and prostate). The data are shown in FIGS. 2a-i which also include data regarding D- and L-ET-18-OCH3 (listed as L-EL and D-EL in the figures). Upon examining the data, one is struck by how 1R and 1a′S standout in comparison to the other compounds, especially for the renal, ovarian, colon, and CNS panels.

The test system of assay [3] is SW-620. The experiment in a line: NCI growth inhibition screen, colon panel. As to conditions: SW-620, Colon; from GI50s. Also noted: key: = means equivalent activity; + means that it appears to be significantly better (i.e., by ˜2x); < means it appears to be less active than ET18OCH3 (˜2x); a combination like =/+ or </+ means that activity is dependent upon the isomer; a combination like =/+ or </+ means that activity is dependent upon the isomer. The assay is classed as cell-based, human. On the procedure:
as §1, §2

In assay [4] the test system is HCT-116. The experiment in a line: NCI growth inhibition screen, colon panel. The assay is classed as cell-based, human. As to conditions: HCT-116, Colon; from GI50s. Also noted: key: = means equivalent activity; + means that it appears to be significantly better (i.e., by ˜2x); < means it appears to be less active than ET18OCH3 (˜2x); a combination like =/+ or </+ means that activity is dependent upon the isomer; a combination like =/+ or </+ means that activity is dependent upon the isomer. The procedure: as §1, §2

The subject of assay [5] is HT29. The experiment in a line: NCI growth inhibition screen, colon panel. Type of assay: cell-based, human. Also noted: key: = means equivalent activity; + means that it appears to be significantly better (i.e., by ˜2x); < means it appears to be less active than ET18OCH3 (˜2x); a combination like =/+ or </+ means that activity is dependent upon the isomer; a combination like =/+ or </+ means that activity is dependent upon the isomer. The following applies: from GI50s. On the procedure: as §1, §2

For assay [6], the system named is COLO 205. The experiment in a line: NCI growth inhibition screen, colon panel. Type of assay: cell-based, human. Details: key: = means equivalent activity; + means that it appears to be significantly better (i.e., by ˜2x); < means it appears to be less active than ET18OCH3 (˜2x); a combination like =/+ or </+ means that activity is dependent upon the isomer; a combination like =/+ or </+ means that activity is dependent upon the isomer. As to conditions: COLO 205, Colon; from GI50s. The procedure:
as §1, §2

Molecules are shown by their SMILES. Several values for one entry are separate records, joined by “and”; a condition that tells them apart may be missing. Equal entries are not always repeated.

The term GI50 denotes the concentration that inhibits growth by half.

`CCCCCCCCCCCCCCCCCCOC[C@@H](COP(=O)([O-])OCC[N+](C)(C)C)OS(C)(=O)=O` [1a′S]: the GI50 in assay [1] is 30.3 µM and 35.2 µM. Also, the “Performance as compared to ET-18-O—CH3” value in assay [2] was 128; in assay [3], 1024; in assay [4] it was 256; in assay [5] it was 0; in assay [6] it was 0.

Take `CCCCCCCCCCCCCCCCCCOCC(COP(=O)([O-])OCC[N+](C)(C)C)OS(C)(=O)=O` (stereo not drawn) [Compound 1aR]: the “Performance as compared to ET-18-O—CH3” value is reported as “+” in assay [2]; “+” in assay [3]; “+” in assay [4]; “=” in assay [5]; “=” in assay [6].

For `CCCCCCCCCCCCCCCCCCOCC(COP(=O)([O-])OCC[N+](C)(C)C)OC` [D-ET18OCH3, 1-O-octadecyl-2-O-methyl-glycerophosphocholine, reference compound], the GI50 in assay [1] worked out at 41.4 µM.

For the origin of these results see patent publication US20060122153A1, “Antineoplastic ether lipid compounds with modifications at the sn-2 carbon” (priority 2003, published 2006).
